Source: patent US6916937B2, “Carbohydrate prodrugs of fluorooxindoles” (Bristol-Myers Squibb Company, priority 2003, dated 2005)

Columns and labels:
[1] = test system: non-BK native currents in the oocytes; test: Effect on non-BK native currents in oocytes (current remaining with IBTX); assay type: cell-based, Xenopus; conditions: at the tested concentration
Protocol: (§1) The ability of the compound of Formula II to open BK channels and increase whole-cell outward (K^+) BK-mediated currents was assessed under voltage-clamp conditions by determining their ability to increase cloned mammalian (mSlo or hSlo) BK—mediated outward current heterologously expressed in Xenopus oocytes [Butler, A., et al., Science, 261, pp. 221-224 (1993); and Dworetzky, S. I., et al., Mol. Brain Res., 27, pp.189-193 (1994)]. The two BK constructs employed represent nearly structurally identical homologous proteins, and have proven to be pharmacologically identical in our tests. To isolate BK current from native (background, non-BK) current, the specific and potent BK channel-blocking toxin iberiotoxin (IBTX) [Galvez, A., et al., J. Biol. Chem, 265, pp.11083-11090 (1990)] was employed at a supramaximal concentration (50 nM). The relative contribution of BK channels current to total outward current was determined by subtraction of the current remaining in the presence of IBTX (non-BK current) from the current profiles obtained in all other experimental conditions (control, drug, and wash). […] The compound of Formula II was shown in at least 5 oocytes at a concentration of 10 μM to increase BK current to 170% of control of IBTX-sensitive current. […]

[2] = test system: cloned mammalian (mSlo or hSlo) BK channels; test: Increase of BK-mediated outward current in Xenopus oocytes, two-electrode voltage clamp; assay type: cell-based; conditions: 10 μM; at least 5 oocytes; mSlo or hSlo expressed in Xenopus oocytes
Protocol: as §1

[3] = test system: focal cerebral ischemia (MCAO) in the Wistar rat; test: Focal stroke model, permanent MCA and CCA occlusion; assay type: in vivo; conditions: 0.3 mg/kg i.v. single bolus two hours after MCA occlusion; infarct measured 24 hours after MCAO
Protocol: To determine the ability of the compounds of the present invention to reduce cell loss resulting from neuronal ischemia, a standard focal cerebral ischemia is induced by permanent occlusion of the left middle cerebral artery (MCA) and common carotid artery (CCA) with one hour occlusion of the right CCA in the Wistar rat. The surgeries are performed using the sub-temporal approach of A. Tamura, et al., J. Cereb. Blood Flow Metab., 1, pp. 53-60, (1981) and its modifications [K. Osborne, et al., J. Neurol Neurosurg. Psychiatry, 50, pp. 402-410 (1987) and S. Menzies, et al., Neurosurgery, 31, pp. 100-107, (1992).]
The compound of Formula II was evaluated in the focal stroke model involving permanent occlusion of the left MCA (MCAO) and CCA (CCAO) and temporary occlusion of the right CCA in the Wistar rat [Gribkoff, et al. Nature Med. 7, pp. 471-477 (2001)]. This procedure results in a reliably large neocortical infarct volume that is measured by means of vital dye exclusion in serial slices through the brain 24 hours after MCAO. In the present test, compounds were administered using an i.v. or i.p. route of administration two hours after occlusion.

[4] = test system: rat traumatic brain injury (TBI) model; conditions: Cheney et al. 2001; cited from earlier work

COc1ccc(Cl)cc1C1(F)C(=O)Nc2cc(C(F)(F)F)ccc21 (racemic) [compound of Formula II, 3-(5-chloro-2-methoxyphenyl)-1,3-dihydro-3-fluoro-6-(trifluoromethyl)-2H-indol-2-one]
Effect on non-BK native currents in the oocytes [1]: did not effect
BK current, % of control of IBTX-sensitive current [2]: 170 % of control
Reduction of cortical infarct volume vs vehicle-treated control [3]: about 28%

COc1ccc(Cl)cc1[C@]1(F)C(=O)Nc2cc(C(F)(F)F)ccc21 [Compound of Formula (S)-II, (S)-3-(5-chloro-2-methoxy-phenyl)-3-fluoro-6-trifluoromethyl-1,3-dihydro-indol-2-one]
Reduction in edema in regions adjacent to the impact zone [4]: significant reductions in edema
